Biological target: T1, APT2 (Homo sapiens, UniProt O95372)
T1 construct: treated with LYPLA2 siRNA or 20 μM of ML349 for 36 h before Alk14 labelling; endogenous in cells; host or cells: DHHC7-knockout HEK293T cells re-expressing HA-DHHC7 and Flag-STAT3
Experiment: STAT3 palmitoylation by Alk14 labelling and in-gel fluorescence after APT2 inhibition or knockdown
Type: cell-based
Settings: DHHC7-knockout HEK293T cells reintroduced with HA-DHHC7 and Flag-STAT3; LYPLA2 siRNA or 20 μM of ML349 for 36 h
Text: FIGS. 2A-2H. APT2 is a depalmitoylase of STAT3 and palmitoylation/depalmitoylation promotes p-STAT3 nuclear localization. (A) C108 is the major palmitoylation site of STAT3. HEK293T cells were transfected with HA-DHHC7 and Flag-STAT3 (wild-type or mutants) and labelled with Alk14. STAT3 was pulled down and subjected to Alk14 labelling and western blot analyses. (B) Left, distribution of wild-type or C108S mutants of STAT3 and p-STAT3 in the subcellular fractions of DHHC7-knockout HEK293T cells into which DHHC7 or DHHS7 were reintroduced. Right, quantification of the relative p-STAT3 levels. (C) The subcellular localization of STAT3 and p-STAT3 was analysed using confocal imaging after different EGFP-STAT3 constructs and HA-tagged DHHC7 were transfected into DHHC7-knockout HEK293T cells. […] (D) In HEK293T cells, overexpression of wild-type APT2—but not the C2S or S122A mutants—decreased the palmitoylation level of Flag-STAT3 as determined by Alk14 labelling. […] The palmitoylation of STAT3 was determined by in-gel fluorescence (left) and quantified (right). […] DHHC7-knockout HEK293T cells were reintroduced with HA-DHHC7 and Flag-STAT3, and treated with LYPLA2 siRNA or 20 μM of ML349 for 36 h before Alk14 labelling and in-gel fluorescence detection. […] Right, quantification of the relative STAT3 and p-STAT3 levels in these fractions. […] Right, quantification of the relative STAT3 levels in these fractions. […]

T1 sequence (O95372 whole entry): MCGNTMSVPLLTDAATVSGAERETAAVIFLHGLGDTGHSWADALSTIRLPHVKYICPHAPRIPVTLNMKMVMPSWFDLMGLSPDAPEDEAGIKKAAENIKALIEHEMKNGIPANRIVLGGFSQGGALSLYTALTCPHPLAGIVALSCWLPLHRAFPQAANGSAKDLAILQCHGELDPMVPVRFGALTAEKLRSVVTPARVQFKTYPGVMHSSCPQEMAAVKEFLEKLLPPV

COc1ccc(N2CCN(C(=O)c3cc4c(s3)-c3ccccc3S(=O)(=O)C4)CC2)cc1 [ML349]
STAT3 palmitoylation: increased STAT3 palmitoylation
